Tests used:
Type in all cases: in vivo
Echinochloa = assay: Pre-emergence test; conditions: greenhouse, 500 g of ai./ha, scored after three weeks
Method: (§1) Pre-emergence Test Solvent: 5 parts by weight of acetone Emulsifier: 1 part by weight of alkylaryl polyglycol ether To produce a suitable preparation of active compound, 1 part by weight of active compound is mixed with the stated amount of solvent, the stated amount of emulsifier is added and the concentrate is diluted with water to the desired concentration. Seeds of the test plants are sown in normal soil. After about 24 hours, the soil is watered with the preparation of active compound. The amount of water per unit area is advantageously kept constant. The concentration of active compound in the preparation is immaterial, only the application rate of active compound per unit area matters. After three weeks, the degree of damage to the plants is scored visually in % damage in comparison to the development of the untreated control. The figures denote: 0%=no effect (like untreated control) 100%=total destruction

Alopecurus = assay: Pre-emergence test; conditions: greenhouse, scored after three weeks
Method: as §1

Datura [1] = assay: Pre-emergence test; conditions: greenhouse, 500 g of ai./ha, scored after three weeks
Method: as §1

Maize [2] = assay: Pre-emergence test; conditions: greenhouse, scored after three weeks
Method: as §1

Matricaria = assay: Pre-emergence test; conditions: greenhouse, 500 g of ai./ha, scored after three weeks
Method: as §1

Digitaria [3] = assay: Pre-emergence test; conditions: greenhouse, 500 g of ai./ha, scored after three weeks
Method: as §1

Abutilon = assay: Pre-emergence test; conditions: greenhouse, scored after three weeks
Method: as §1

Viola = assay: Post-emergence test; conditions: greenhouse, scored after three weeks
Outline: (§2)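 1 part active + 5 parts acetone + 1 part alkylaryl polyglycol ether, diluted in water; sprayed on 5-15 cm plants at target rate/area, 1000 l/ha; % damage scored visually at 3 wk vs untreated.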

Wheat = assay: Post-emergence test; conditions: greenhouse, scored after three weeks
Outline: as §2

Chenopodium = assay: Post-emergence test; conditions: greenhouse, scored after three weeks
Outline: as §2

Polygonum = assay: Post-emergence test; conditions: greenhouse, 125 g of ai./ha, scored after three weeks
Outline: as §2

Datura [4] = assay: Post-emergence test; conditions: greenhouse, 125 g of ai./ha, scored after three weeks
Outline: as §2

Maize [5] = assay: Post-emergence test; conditions: greenhouse, 125 g of ai./ha, scored after three weeks
Outline: as §2

Setaria [6] = assay: Post-emergence test; conditions: greenhouse, scored after three weeks
Outline: as §2

Digitaria [7] = assay: Post-emergence test; conditions: greenhouse, 125 g of ai./ha, scored after three weeks
Outline: as §2

Galium = assay: Pre-emergence test; conditions: greenhouse, 1000 g of ai./ha, scored after three weeks
Method: as §1

Amaranthus [8] = assay: Pre-emergence test; conditions: greenhouse, 1000 g of ai./ha, scored after three weeks
Method: as §1

Sinapis = assay: Pre-emergence test; conditions: greenhouse, 1000 g of ai./ha, scored after three weeks
Method: as §1

Setaria [9] = assay: Pre-emergence test; conditions: greenhouse, 1000 g of ai./ha, scored after three weeks
Method: as §1

Stellaria = assay: Post-emergence test; conditions: greenhouse, 250 g of ai./ha, scored after three weeks
Outline: as §2

Amaranthus [10] = assay: Post-emergence test; conditions: greenhouse, 250 g of ai./ha, scored after three weeks
Outline: as §2

SMILES: CC(F)c1nc(N)nc(NC(C)c2ccc(Cl)cc2)n1 (stereo not shown) [drawing 93]
- % damage, Echinochloa (Echinochloa): 100%
- % damage, Alopecurus (Alopecurus; 500 g of ai./ha): 100%
- % damage, Datura (Datura [1]): 100%
- % damage, Maize (Maize [2]; 500 g of ai./ha): 0%
- % damage, Matricaria (Matricaria): 100%
- % damage, Digitaria (Digitaria [3]): 100%
- % damage, Abutilon (Abutilon; 500 g of ai./ha): 100%

SMILES: CC(F)c1nc(N)nc(NC(C)c2ccc(Cl)cc2)n1 (stereo not shown) [drawing 104]
- % damage, Viola (Viola; 125 g of ai./ha): 100%
- plant injury at 125 g/ha (Wheat; Triticum aestivum, 504 h, 125 g of ai./ha, read-out: % damage, Wheat): 0%
- % damage, Chenopodium (Chenopodium; 125 g of ai./ha): 100%
- % damage, Polygonum (Polygonum): 100%
- % damage, Datura (Datura [4]): 100%
- % damage, Maize (Maize [5]): 10%
- % damage, Setaria (Setaria [6]; 125 g of ai./ha): 90%
- % damage, Digitaria (Digitaria [7]): 80%

SMILES: CC(Nc1nc(N)nc(C(C)(C)F)n1)c1ccc(Cl)cc1 (stereo not shown) [drawing 96]
- % damage, Galium (Galium): 100%
- % damage, Amaranthus (Amaranthus [8]): 100%
- % damage, Sinapis (Sinapis): 100%
- % damage, Alopecurus (Alopecurus; 1000 g of ai./ha): 100%
- % damage, Maize (Maize [2]; 1000 g of ai./ha): 20%
- % damage, Setaria (Setaria [9]): 100%
- % damage, Abutilon (Abutilon; 1000 g of ai./ha): 100%

SMILES: CC(F)c1nc(N)nc(NC(C)c2ccc(Cl)cc2)n1 (stereo not shown) [drawing 105]
- pest or weed control at 125 g/ha (Viola; 504 h, 125 g of ai./ha, read-out: % damage, Viola): 100%
- pest or weed control at 125 g/ha (Chenopodium; Chenopodium, 504 h, 125 g of ai./ha, read-out: % damage, Chenopodium): 100%
- pest or weed control at 125 g/ha (Polygonum; Polygonum, 504 h, read-out: % damage, Polygonum): 100%
- % damage, Datura (Datura [4]): 100%
- % damage, Maize (Maize [5]): 20%
- pest or weed control at 125 g/ha (Setaria [6]; Setaria, 504 h, 125 g of ai./ha, read-out: % damage, Setaria): 80%

SMILES: CCC(Nc1nc(N)nc(C(F)(F)F)n1)c1ccc(Cl)cc1 (stereo not shown) [drawing 142]
- % damage, Viola (Viola; 250 g of ai./ha): 100%
- % damage, Wheat (Wheat; 250 g of ai./ha): 10%
- % damage, Stellaria (Stellaria): 100%
- % damage, Chenopodium (Chenopodium; 250 g of ai./ha): 100%
- % damage, Amaranthus (Amaranthus [10]): 100%
- % damage, Setaria (Setaria [6]; 250 g of ai./ha): 100%

Source: patent publication US6440903B1, “Substituted 2,4-diamino-1,3,5-triazines as herbicides” (Bayer Aktiengesellschaft, priority 1996, dated 2002)
